Experimental data: publication PMC8012331, “Drug-induced hepatic steatosis in absence of severe mitochondrial dysfunction in HepaRG cells: proof of multiple mechanism-based toxicity” (Cell Biology and Toxicology, 2020)
Several values for one entry are separate records, joined by “and”; a condition that tells them apart may be missing. Equal entries are not always repeated. Where two headings read alike, the source gives them in different places.

Legend:
[1] = tested on: de novo lipogenesis (DNL); experiment: DNL from [2-14C]acetic acid in HepaRG cells; format: cell-based, human; settings: 4 days, vs control
Method: (§1) Experiments were carried out on passages 9 to 16. […] DPEN was dissolved in water.
DNL was assessed by measuring newly synthesized radiolabeled lipids from [2-^14C]acetic acid, using a protocol adapted from Byrne et al. ([2014]). Briefly, culture medium was removed and cells were washed with warm PBS. Next, cells were incubated for 3 h with phenol red-free William’s E medium containing 1% fatty acid-free BSA, [2-^14C]acetic acid (1850 Bq per well, corresponding to 19.4 pM) and 50 μM cold acetic acid. Medium was then gently removed and cells were washed with warm PBS before adding a mix of hexane/isopropanol (3:2; v/v). Cell culture plates were sealed and incubated for 1 h at room temperature for lipid extraction. After transfer of the plate content in 200-μL microtubes, hexane and PBS were added to have a hexane/isopropanol/PBS ratio of 6:2:3 (v/v/v). Microtubes were then centrifuged at 1000×g for 5 min and radiolabeled lipids were counted in the upper phase with a Tri-Carb 4910TR liquid scintillation counter (PerkinElmer). Results were normalized to total protein content and expressed in comparison to control cells.

[2] = tested on: ATP citrate lyase (ACLY); experiment: RT-qPCR ACLY mRNA in HepaRG cells; format: cell-based, human; settings: 4 days, vs control
Method: (§2) Total RNA was extracted with the Nucleospin RNA isolation system purchased from Macherey-Nagel (Düren, Germany), which included a DNase treatment step. Quantification of isolated RNAs was assessed using a Nanodrop 1000 (Thermo Fisher Scientific, Waltham, MA). RNAs were reverse-transcribed into cDNAs using the High-Capacity cDNA Reverse Transcription Kit purchased from Applied Biosystems (Woolston, UK). Gene expression was assessed by real-time quantitative PCR analysis (RT-qPCR) using SYBR Green PCR Master Mix (Applied Biosystems) and a 384-well QuantStudio™ 7 Flex Real-Time PCR System (Thermo Fisher Scientific). Sequences of the primers used to measure gene expression are presented in Supplementary Table 3. Expression of GAPDH was chosen as reference and the 2^−ΔΔCt calculation method was used to express the relative expression of each selected gene.

[3] = tested on: HepaRG cells; experiment: Neutral lipids with Nile red in HepaRG cells; settings: 4 days, selected concentrations (ATP loss < 30%, not above 100 × Cmax), vs control
Method: (§3) Briefly, HepaRG cells were seeded in 96-well plates at a density of 2.6 × 10^4 cells/cm^2 and were first incubated in William’s E medium supplemented with 10% FBS (50% FBS from Eurobio and 50% FBS from GE Healthcare), 100 U/mL penicillin, 100 μg/mL streptomycin, 2 mM glutamine, 5 μg/mL insulin, and 50 μM hydrocortisone hemisuccinate. […] During this 1-month period, the culture medium was renewed three times a week. […] HepaRG cells were next cultured in the same FBS/DMSO conditions and incubated for 4 days with each drug at different concentrations. Culture medium was renewed every day and all investigations were performed after 96 h (i.e., 24 h after the fourth treatment). These investigations were mostly performed in 96-well plates except for western blot analysis, for which 6-well plates were used. Experiments were carried out on passages 9 to 16. All drugs (except DPEN), etomoxir, lomitapide, tunicamycin, thapsigargin, and TUDCA were dissolved in DMSO. DPEN was dissolved in water.
(§4) Cells were then incubated with PBS containing 0.1 μg/mL Nile red for 30 min and washed once. […] For each well, four pictures were taken at a magnification of × 20 and analyzed with Columbus software (PerkinElmer) for quantification. These pictures were always taken in four different areas around the center of each well, and these areas were the same from one well to another, as programmed by the Columbus software. This software was also designed to count only living cells after exclusion of dying cells harboring nuclei with abnormal shape or altered Hoechst intensity. […] Neutral lipids were then normalized per number of nuclei and expressed relative to control cells. Examples of images used for neutral lipid quantification are shown in Supplementary Fig. 2.

[4] = tested on: stearoyl-CoA desaturase 1 (hSCD1); experiment: RT-qPCR hSCD1 mRNA in HepaRG cells; format: cell-based, human; settings: 4 days, vs control
Method: as §2

[5] = tested on: fatty acid translocase (FAT, also known as CD36); experiment: RT-qPCR FAT/CD36 mRNA in HepaRG cells; format: cell-based, human; settings: 4 days
Method: as §2

[6] = Maximum plasma concentration (Cmax) in patients; format: in vivo, human
[7] = treated patients, cited from earlier work
[8] = tested on: HepaRG cells; experiment: Cellular ATP level (CellTiter-Glo) in HepaRG cells; format: cell-based, human; settings: 4 days, vs controls
Method: Cellular ATP level was measured using the CellTiter-Glo® Luminescent Cell Viability assay purchased from Promega (Charbonnières, France), according to the manufacturer’s instructions. Briefly, control and treated HepaRG cells were first washed with warm PBS and kept for 30 min at room temperature in phenol red-free William’s E medium. Cells were next incubated with the CellTiter-Glo® reagent for 10 min at room temperature. Cells were then transferred in opaque-walled multiwell plates and the luminescent signal was quantified using a POLARstar Omega microplate reader (BMG Labtech, Ortenberg, Germany). Results were expressed in comparison to control cells.

[9] = tested on: mitochondrial fatty acid oxidation (mtFAO); experiment: mtFAO with [U-14C]palmitic acid in HepaRG cells; format: cell-based, human; settings: 4 days, vs control
Method: as §1
Results were normalized to total protein content determined using the Pierce BCA assay kit from Thermo Fischer Scientific (Waltham, MA). Results were expressed in comparison to control cells.

[10] = cited from earlier work; for Cmax: read-out: Maximum plasma concentration (Cmax) in patients
[11] = tested on: apoB secretion; experiment: apoB level in culture medium (ELISA), HepaRG cells; format: cell-based, human; settings: 4 days; for Effect on apoB secretion: culture medium, vs control
Method: as §1
Twenty-four hours after the last treatment, cell supernatants were removed and stored at − 80 °C until use for apolipoprotein measurement. ApoB level was measured using the Human Apolipoprotein B ELISA^pro kit from Mabtech (Nacka Strand, Sweden), according to the manufacturer’s instructions. Briefly, 50 μL of samples were diluted 2× in Apo ELISA buffer before a 2-h incubation in the precoated strip plates provided in the kit. The plates were washed and incubated 1 h with the biotinylated monoclonal anti-human apoB (LDL-11-biotin) antibody. The plates were then washed and incubated 1 h with a streptavidin–horseradish peroxidase conjugated antibody. After another washing, 3,3′,5,5′-tetramethylbenzidine (TMB) was used as substrate for 15 min before adding a stop solution. Absorbance at 450 nm was then measured using a POLARstar Omega microplate reader (BMG Labtech, Ortenberg). ApoB level was calculated utilizing a four-parameter standard curve, and normalized to the total cellular protein content and expressed in comparison to control cells.

[12] = tested on: apolipoprotein B (APOB); experiment: RT-qPCR APOB mRNA in HepaRG cells; format: cell-based, human; settings: 4 days, vs control
Method: as §2

[13] = tested on: apoC3 secretion; experiment: apoC3 level in culture medium (HTRF), HepaRG cells; format: cell-based, human; settings: 4 days
Method: as §3
Apolipoprotein C3 (apoC3) level was measured using the Human Apolipoprotein C3 kit from Cisbio Bioassays (Codolet, France), according to the manufacturer’s instructions. Briefly, 10 μL of supernatants was incubated with two different specific anti-human apoC3 antibodies, one donor and one acceptor. The detection principle of apoC3 is based on HTRF® (Homogeneous Time Resolved Fluorescence), a time-resolved FRET (Förster Resonance Energy Transfer) technology. After 2 h of incubation, light emission was measured with the Infinite F Nano+ microplate reader (Tecan, Männedorf, Switzerland). ApoC3 level was calculated utilizing standard curve, based on the ratio of A665 nm/A615 nm, and normalized to the total cellular protein content. Results were expressed in comparison to control cells.

[14] = tested on: primary human hepatocytes (PHH); experiment: Neutral lipids with Nile red in primary human hepatocytes; format: cell-based; settings: 4 days
Method: Primary human hepatocytes (PHH) were purchased from Biopredic International (Saint-Grégoire, France). Cells were seeded by the supplier in coated 96-well plates at a density of 5 × 10^4 cells/well. Upon receipt, culture medium was removed and replaced by William’s E medium supplemented as previously described for HepaRG cell differentiation, except for DMSO set at 1%. After 2–3 days, cells were treated as for HepaRG cells. For HepaRG cells and PHH, cells were always maintained in incubators at 37 °C with 5% CO2 and saturating humidity.
as §4

[15] = tested on: angiopoietin-like 3 (ANGPTL3); experiment: RT-qPCR ANGPTL3 mRNA in HepaRG cells; format: cell-based, human; settings: 4 days, vs control
Method: as §2

[16] = tested on: ERN1 (IRE1α); experiment: RT-qPCR ERN1 mRNA in HepaRG cells; format: cell-based, human; settings: 4 days, vs control
Method: as §2

[17] = tested on: apolipoprotein C3 (APOC3); experiment: RT-qPCR APOC3 mRNA in HepaRG cells; format: cell-based, human; settings: 4 days, vs control
Method: as §2

[18] = tested on: microsomal triglyceride transfer protein (MTTP); experiment: RT-qPCR MTTP mRNA in HepaRG cells; format: cell-based, human; settings: 4 days, vs control
Method: as §2

[19] = high dose chemotherapy, ref Holmboe L et al., Br J Clin Pharmacol. 2012;73(1):106-14
[20] = rheumatoid arthritis treatment, ref Hoekstra M et al., J Rheumatol. 2004;31(4):645-8

CCCCc1oc2ccccc2c1C(=O)c1cc(I)c(OCCN(CC)CC)c(I)c1 [AMIO, amiodarone]
Effect on DNL [1]: increased DNL
ACLY mRNA level [2]: enhanced mRNA level
Accumulation of neutral lipids (steatosis) [3]: significant accumulation of neutral lipids
hSCD1 mRNA level [4]: enhanced mRNA level

CN(Cc1cnc2nc(N)nc(N)c2n1)c1ccc(C(=O)N[C@@H](CCC(=O)O)C(=O)O)cc1 [METHO, methotrexate]
Increase of FAT/CD36 mRNA level ([5]; 50 μM): 60%
Increase of FAT/CD36 mRNA level ([5]; 150 μM): 55%
Concentration corresponding to 100xCmax ([6]; from Cmax of high dose chemotherapy): 150000 µM
Concentration corresponding to 100xCmax ([6]; from Cmax of rheumatoid arthritis treatment): 130 µM
Effect on DNL [1]: curb this metabolic pathway
Therapeutic blood (or plasma) concentration in patients ([7]; ref Schulz M et al., Crit Care 2012 ;16(4):R136, listed as Methotrexate (METHO)): 0.04 mg/L and 0.09 µM
Loss of cellular ATP relative to the maximum concentration selected for the study [8]: 150 µM (loss of cellular ATP below 30% of the controls for this concentration, as shown in Supp. fig 1)
Accumulation of neutral lipids (steatosis) [3]: significant accumulation of neutral lipids
Effect on mtFAO [9]: significantly enhance mtFAO
Maximum plasma concentration (Cmax) in patients [10, 19]: ≤ 680000 ng/mL
Cmax [10, 19]: ≤ 1500 µM
Maximum plasma concentration (Cmax) in patients [10, 20]: ≤ 594 ng/mL
Cmax [10, 20]: ≤ 1.3 µM
Effect on apoB secretion [11]: did not reduce

Cc1c(C)c2c(c(C)c1O)CCC(C)(COc1ccc(CC3SC(=O)NC3=O)cc1)O2 (stereo not drawn) [TRO, troglitazone]
APOB mRNA level [12]: nearly abolish the mRNA abundance
Concentration corresponding to 100xCmax ([6]; worked out from cited Cmax in patients): 640 µM
Effect on DNL [1]: curb this metabolic pathway
Secretion of apoC3 ([13]; 45 and 47.5 μM): less than 10 % of the respective control
Effect on apoC3 secretion ([13]; culture medium, vs control): reduced the secretion
Therapeutic blood (or plasma) concentration in patients ([7]; ref Loi CM et al., J Clin Pharmacol 1999;39(9):920-6, Plosker GL and Faulds D. Drugs 1999;57(3):409-438, listed as Troglitazone (TRO)): 0.90 - 2.82 mg/L and 2.0 - 6.4 µM
Loss of cellular ATP relative to the maximum concentration selected for the study [8]: 47.5 µM (loss of cellular ATP above 30% of the controls for higher concentrations, as shown in Supp. fig 1)
Steatosis in PHH batches (six batches tested) [14]: induced steatosis in only one PHH batch
ANGPTL3 mRNA level [15]: nearly abolish the mRNA abundance
ERN1 (IRE1α) mRNA level [16]: enhanced IRE1α mRNA level
Accumulation of neutral lipids (steatosis) [3]: significant accumulation of neutral lipids
Effect on mtFAO [9]: significantly enhance mtFAO
Maximum plasma concentration (Cmax) in patients ([10]; patients, ref given per drug): ≤ 2830 ng/mL
Cmax ([10]; patients, ref given per drug): ≤ 6.4 µM
Secretion of apoB ([11]; 45 and 47.5 μM): less than 10 % of the respective control
Effect on apoB secretion [11]: reduced the secretion
APOC3 mRNA level [17]: nearly abolish the mRNA abundance
MTTP mRNA level [18]: nearly abolish the mRNA abundance
